Assays:
[1] = tested on: U937 cells; assay: Active caspase-3 by flow cytometry in U937 cells; type: cell-based; conditions: 10 μM, 24 h
[2] = tested on: HIV-1 latently infected U1 cells; assay: Intracellular HIV-1 p24 by flow cytometry in U1 cells; type: cell-based; conditions: 24 h
Description: The reactivation of HIV-1 from latently infected cells was determined by intracellular p24 protein expression and quantification of p24 antigen in the supernatant (ACH-2 and U1 cells), or by changes in intracellular green fluorescent protein (GFP) expression (J-Lat 10.6 cells). J-Lat ([Jordan et al., 2003]), ACH-2, or U1 cells (5 × 10^5 cells/ml) were seeded in 96-well plates and incubated with different drug concentrations for 24 h to collect the cells. The supernatant was collected after 48 h. The increase in supernatant p24 antigen levels was measured using a Lumipulse G1200 (FUJIREBIO, Tokyo, Japan). J-Lat cells (5 × 10^5 cells/ml) were placed in 48-well plates and incubated with different drug concentrations for 24 h. Intracellular p24 protein expression and GFP-positive cells were analyzed by flow cytometry.
(§1) The amount of intracellular HIV-1 p24 and the active form of caspase-3 were determined by flow cytometry, as previously described ([Matsuda et al., 2015], [2019]). In brief, ACH-2 and U1 cells (2.5 × 10^5 cells/ml) were fixed with 1% paraformaldehyde/PBS for 20 min and permeabilized with Flow Cytometry Perm Buffer (TONBO Biosciences, San Diego, CA, United States). After 5 min of incubation at room temperature, the cells were stained with FITC anti-HIV-1 p24 (24-4) monoclonal antibody (mAb; Santa Cruz Biotechnology, Dallas, TX, United States) or Alexa Fluor 647-conjugated anti-active caspase-3 (C92-605) mAb (BD Pharmingen, San Diego, CA, United States) for 30 min on ice. For T cell activation and exhaustion marker staining, PBMCs from healthy donors separated by the above density gradient centrifugation method were incubated with fixable viability stain Ghost Dye 780 (TONBO Biosciences) for 30 min on ice. The cells were then stained with Brilliant Violet 510 anti-human CD3 (UCHT1) mAb (BioLegend), FITC anti-human CD4 (RPA-T4) mAb (TONBO Biosciences), PE-Cy7 anti-human CD8a (RPA-T8) mAb (TONBO Biosciences), PerCP-Cy5.5 anti-human CD38 (HB-7) mAb (BioLegend), PE anti-human CD69 (FN50) mAb (BioLegend), or Alexa Fluor 647 anti-human CD279/PD-1 (EH12.1) mAb (BD Biosciences, San Jose, CA, United States) for 30 min on ice. Next, the cells were analyzed using BD FACSVerse (BD Biosciences). In the analysis, unstained cells were used as a negative control to set the gating for each experiment. The collected data were analyzed using FlowJo software (Tree Star, San Carlos, CA, United States).

[3] = tested on: CD4+ or CD8+ primary T cells; assay: T cell activation, CD69 expression on CD4+ or CD8+ primary T cells; type: cell-based, human; conditions: 1 μM, 24 h, compared to prostratin and PEP005
Description: as §1, with “The cells were then stained with Brilliant Violet 510 anti-human CD3 (UCHT1) mAb (BioLegend), FITC anti-human CD4 (RPA-T4) mAb (TONBO Biosciences), PE-Cy7 anti-human CD8a (RPA-T8) mAb (TONBO Biosciences), PerCP-Cy5.5 anti-human CD38 (HB-7) mAb (BioLegend), PE anti-human CD69 (FN50) mAb (BioLegend), or Alexa Fluor 647 anti-human CD279/PD-1 (EH12.1) mAb (BD Biosciences, San Jose, CA, United States) for 30 min on ice.” left out, “In the analysis, unstained cells were used as a negative control to set the gating for each experiment.” left out

[4] = tested on: U1 cells; assay: Active caspase-3 by flow cytometry in U1 cells; type: cell-based; conditions: 10 µM, 24 h
Description: as §1, with “The cells were then stained with Brilliant Violet 510 anti-human CD3 (UCHT1) mAb (BioLegend), FITC anti-human CD4 (RPA-T4) mAb (TONBO Biosciences), PE-Cy7 anti-human CD8a (RPA-T8) mAb (TONBO Biosciences), PerCP-Cy5.5 anti-human CD38 (HB-7) mAb (BioLegend), PE anti-human CD69 (FN50) mAb (BioLegend), or Alexa Fluor 647 anti-human CD279/PD-1 (EH12.1) mAb (BD Biosciences, San Jose, CA, United States) for 30 min on ice.” left out, “In the analysis, unstained cells were used as a negative control to set the gating for each experiment.” left out

CCCC(CCC)C(=O)OCC1(CO)CC(=C(C)C)C(=O)O1 (stereo not drawn) [YSE028]
caspase-3 activation [1]: 6.35%
intracellular p24-positive live cells (flow cytometry quadrant) ([2]; 0.1 µM): 0.239
intracellular p24-positive live cells (flow cytometry quadrant) ([2]; 1 µM): 1.13
intracellular p24-positive live cells (flow cytometry quadrant) ([2]; 10 µM): 36.3
CD69+ cells in primary T cells (global T cell activation) [3]: less effect
caspase-3 activation [4]: 22.7%

Source: article PMC8010149, “A Therapeutic Strategy to Combat HIV-1 Latently Infected Cells With a Combination of Latency-Reversing Agents Containing DAG-Lactone PKC Activators” (Frontiers in Microbiology, 2021)
